Laboratory results reported in publication PMC12090182, “Repurposing of the RIPK1-Selective Benzo[1,4]oxazepin-4-one Scaffold for the Development of a Type III LIMK1/2 Inhibitor” (ACS Chemical Biology, 2025).
Where two headings read alike, the source gives them in different places.

Columns and labels:
Test in all cases: biochemical
Type in all cases: binding
[1] = molecular target: 468 kinases including some pathogenic mutants (Homo sapiens, UniProt Q04771); conditions: ACVR1 (Entrez ACVR1), 100 nM; read-out: Percent Control
[2] = molecular target: 468 kinases including some pathogenic mutants (Homo sapiens, UniProt P07949, V804M); conditions: read-out: Percent Control
[3] = molecular target: 468 kinases including some pathogenic mutants (Homo sapiens, UniProt O00329); conditions: PIK3CD (Entrez PIK3CD), 100 nM; read-out: Percent Control
[4] = molecular target: 468 kinases including some pathogenic mutants (Homo sapiens, UniProt Q9HBH9); conditions: MKNK2 (Entrez MKNK2), 1000 nM; read-out: Percent Control
[5] = molecular target: 468 kinases including some pathogenic mutants (Homo sapiens, UniProt P04049); conditions: RAF1 (Entrez RAF1), 1000 nM; read-out: Percent Control
[6] = molecular target: 468 kinases including some pathogenic mutants (Homo sapiens, UniProt O43293); conditions: DAPK3 (Entrez DAPK3), 100 nM; read-out: Percent Control
[7] = molecular target: 468 kinases including some pathogenic mutants (Homo sapiens, UniProt Q8N5S9); conditions: CAMKK1 (Entrez CAMKK1), 100 nM; read-out: Percent Control
[8] = molecular target: 468 kinases including some pathogenic mutants (Homo sapiens, UniProt P00519, E255K); conditions: read-out: Percent Control
[9] = molecular target: 468 kinases including some pathogenic mutants (Homo sapiens, UniProt Q15208); conditions: NDR1 (Entrez STK38), 100 nM; read-out: Percent Control
[10] = molecular target: 468 kinases including some pathogenic mutants (Homo sapiens, UniProt Q32MK0); conditions: MLCK (Entrez MYLK3), 100 nM; read-out: Percent Control
[11] = molecular target: 468 kinases including some pathogenic mutants (Homo sapiens, UniProt Q9NSY1); conditions: BIKE (Entrez BMP2K), 100 nM; read-out: Percent Control
[12] = molecular target: 468 kinases including some pathogenic mutants (Homo sapiens, UniProt P36894); conditions: BMPR1A (Entrez BMPR1A), 100 nM; read-out: Percent Control
[13] = molecular target: 468 kinases including some pathogenic mutants (Homo sapiens, UniProt Q5S007, G2019S); conditions: read-out: Percent Control
[14] = molecular target: 468 kinases including some pathogenic mutants (Homo sapiens, UniProt Q9P0L2); conditions: MARK1 (Entrez MARK1), 1000 nM; read-out: Percent Control
Sequence of 468 kinases including some pathogenic mutants (Homo sapiens, UniProt Q9P0L2) (Q9P0L2 whole entry, stated change not applied): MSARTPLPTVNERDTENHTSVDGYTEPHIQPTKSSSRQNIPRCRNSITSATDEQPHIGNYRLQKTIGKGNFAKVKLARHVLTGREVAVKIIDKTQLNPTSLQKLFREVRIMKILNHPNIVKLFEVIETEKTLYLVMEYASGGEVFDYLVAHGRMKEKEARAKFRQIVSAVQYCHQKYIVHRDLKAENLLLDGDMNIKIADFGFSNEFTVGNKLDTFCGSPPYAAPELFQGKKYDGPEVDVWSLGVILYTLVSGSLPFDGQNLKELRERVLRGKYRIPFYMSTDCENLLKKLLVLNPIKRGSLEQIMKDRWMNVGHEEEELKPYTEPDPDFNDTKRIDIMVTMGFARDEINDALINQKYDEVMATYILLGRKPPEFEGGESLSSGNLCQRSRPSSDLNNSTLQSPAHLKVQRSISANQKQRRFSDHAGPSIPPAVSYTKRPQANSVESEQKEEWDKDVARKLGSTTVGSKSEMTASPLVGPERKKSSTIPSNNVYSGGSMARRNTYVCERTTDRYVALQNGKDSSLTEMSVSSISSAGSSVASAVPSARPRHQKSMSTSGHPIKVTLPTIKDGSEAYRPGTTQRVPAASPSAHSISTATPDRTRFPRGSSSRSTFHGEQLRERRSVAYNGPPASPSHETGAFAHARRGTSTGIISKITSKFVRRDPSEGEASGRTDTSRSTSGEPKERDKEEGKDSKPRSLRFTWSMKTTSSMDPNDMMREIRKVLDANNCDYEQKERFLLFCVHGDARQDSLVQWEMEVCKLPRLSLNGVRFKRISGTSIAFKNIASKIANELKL

[15] = molecular target: 468 kinases including some pathogenic mutants (Homo sapiens, UniProt P00519, H396P)
[16] = molecular target: 468 kinases including some pathogenic mutants (Homo sapiens, UniProt Q8WU08); conditions: YANK1 (Entrez STK32A), 100 nM; read-out: Percent Control
[17] = molecular target: 468 kinases including some pathogenic mutants (Homo sapiens, UniProt O43353); conditions: RIPK2 (Entrez RIPK2), 100 nM; read-out: Percent Control
[18] = molecular target: 468 kinases including some pathogenic mutants (Homo sapiens, UniProt Q9UBF8); conditions: PIK4CB (Entrez PI4KB), 100 nM; read-out: Percent Control
[19] = molecular target: 468 kinases including some pathogenic mutants (Homo sapiens, UniProt P48736); conditions: PIK3CG (Entrez PIK3CG), 100 nM; read-out: Percent Control
Sequence of 468 kinases including some pathogenic mutants (Homo sapiens, UniProt P48736) (P48736 whole entry, change not shown): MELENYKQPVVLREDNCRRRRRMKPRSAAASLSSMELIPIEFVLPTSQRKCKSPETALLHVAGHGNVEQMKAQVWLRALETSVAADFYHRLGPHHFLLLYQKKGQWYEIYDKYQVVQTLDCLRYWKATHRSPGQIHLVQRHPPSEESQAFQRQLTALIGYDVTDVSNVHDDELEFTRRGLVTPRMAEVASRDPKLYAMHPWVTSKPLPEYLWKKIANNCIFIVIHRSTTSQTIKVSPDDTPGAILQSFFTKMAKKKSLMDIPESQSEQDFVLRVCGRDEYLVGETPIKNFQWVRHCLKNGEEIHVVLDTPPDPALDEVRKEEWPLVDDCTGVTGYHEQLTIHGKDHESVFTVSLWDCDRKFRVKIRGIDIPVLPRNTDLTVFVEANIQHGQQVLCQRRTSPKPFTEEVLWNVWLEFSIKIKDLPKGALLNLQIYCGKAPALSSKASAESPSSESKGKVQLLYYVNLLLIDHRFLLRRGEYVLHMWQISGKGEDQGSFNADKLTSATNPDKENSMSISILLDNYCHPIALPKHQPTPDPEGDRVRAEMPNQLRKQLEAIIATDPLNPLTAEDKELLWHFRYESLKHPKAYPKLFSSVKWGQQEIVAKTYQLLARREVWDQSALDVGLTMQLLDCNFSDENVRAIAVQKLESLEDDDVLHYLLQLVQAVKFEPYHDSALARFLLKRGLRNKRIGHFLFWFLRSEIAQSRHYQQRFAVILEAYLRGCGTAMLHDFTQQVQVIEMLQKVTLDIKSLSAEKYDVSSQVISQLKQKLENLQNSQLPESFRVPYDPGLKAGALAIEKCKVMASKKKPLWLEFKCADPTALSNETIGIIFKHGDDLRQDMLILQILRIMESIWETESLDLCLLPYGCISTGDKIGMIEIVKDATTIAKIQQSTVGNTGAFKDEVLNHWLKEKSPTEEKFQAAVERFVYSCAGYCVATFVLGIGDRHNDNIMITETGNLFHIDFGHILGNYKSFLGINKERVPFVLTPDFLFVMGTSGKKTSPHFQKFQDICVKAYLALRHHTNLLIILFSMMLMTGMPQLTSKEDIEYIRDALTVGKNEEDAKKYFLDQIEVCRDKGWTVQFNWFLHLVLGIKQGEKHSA

[20] = molecular target: 468 kinases including some pathogenic mutants (Homo sapiens, UniProt Q16566); conditions: CAMK4 (Entrez CAMK4), 100 nM; read-out: Percent Control
[21] = molecular target: 468 kinases including some pathogenic mutants (Homo sapiens, UniProt Q52WX2); conditions: SBK1 (Entrez SBK1), 1000 nM; read-out: Percent Control
[22] = molecular target: 468 kinases including some pathogenic mutants (Homo sapiens, UniProt O96013); conditions: PAK4 (Entrez PAK4), 100 nM; read-out: Percent Control
Sequence of 468 kinases including some pathogenic mutants (Homo sapiens, UniProt O96013) (O96013 whole entry, change not shown): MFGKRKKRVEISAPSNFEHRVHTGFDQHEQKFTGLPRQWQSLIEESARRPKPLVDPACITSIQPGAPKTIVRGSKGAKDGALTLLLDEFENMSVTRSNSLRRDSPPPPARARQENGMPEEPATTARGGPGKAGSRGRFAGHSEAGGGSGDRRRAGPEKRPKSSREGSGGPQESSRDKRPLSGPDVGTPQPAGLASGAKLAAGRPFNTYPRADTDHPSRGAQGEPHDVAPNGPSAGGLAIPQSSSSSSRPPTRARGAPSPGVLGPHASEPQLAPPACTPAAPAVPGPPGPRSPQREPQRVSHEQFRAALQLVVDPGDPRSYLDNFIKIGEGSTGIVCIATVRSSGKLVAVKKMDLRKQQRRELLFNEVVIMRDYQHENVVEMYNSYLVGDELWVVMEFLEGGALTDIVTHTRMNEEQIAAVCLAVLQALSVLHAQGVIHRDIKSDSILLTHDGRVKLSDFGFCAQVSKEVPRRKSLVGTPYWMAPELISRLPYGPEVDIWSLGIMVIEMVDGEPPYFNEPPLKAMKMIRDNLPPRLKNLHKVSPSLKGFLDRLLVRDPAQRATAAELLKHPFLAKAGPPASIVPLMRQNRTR

[23] = molecular target: 468 kinases including some pathogenic mutants (Homo sapiens, UniProt Q12866); conditions: MERTK (Entrez MERTK), 100 nM; read-out: Percent Control
Sequence of 468 kinases including some pathogenic mutants (Homo sapiens, UniProt Q12866) (Q12866 21-999, change not shown): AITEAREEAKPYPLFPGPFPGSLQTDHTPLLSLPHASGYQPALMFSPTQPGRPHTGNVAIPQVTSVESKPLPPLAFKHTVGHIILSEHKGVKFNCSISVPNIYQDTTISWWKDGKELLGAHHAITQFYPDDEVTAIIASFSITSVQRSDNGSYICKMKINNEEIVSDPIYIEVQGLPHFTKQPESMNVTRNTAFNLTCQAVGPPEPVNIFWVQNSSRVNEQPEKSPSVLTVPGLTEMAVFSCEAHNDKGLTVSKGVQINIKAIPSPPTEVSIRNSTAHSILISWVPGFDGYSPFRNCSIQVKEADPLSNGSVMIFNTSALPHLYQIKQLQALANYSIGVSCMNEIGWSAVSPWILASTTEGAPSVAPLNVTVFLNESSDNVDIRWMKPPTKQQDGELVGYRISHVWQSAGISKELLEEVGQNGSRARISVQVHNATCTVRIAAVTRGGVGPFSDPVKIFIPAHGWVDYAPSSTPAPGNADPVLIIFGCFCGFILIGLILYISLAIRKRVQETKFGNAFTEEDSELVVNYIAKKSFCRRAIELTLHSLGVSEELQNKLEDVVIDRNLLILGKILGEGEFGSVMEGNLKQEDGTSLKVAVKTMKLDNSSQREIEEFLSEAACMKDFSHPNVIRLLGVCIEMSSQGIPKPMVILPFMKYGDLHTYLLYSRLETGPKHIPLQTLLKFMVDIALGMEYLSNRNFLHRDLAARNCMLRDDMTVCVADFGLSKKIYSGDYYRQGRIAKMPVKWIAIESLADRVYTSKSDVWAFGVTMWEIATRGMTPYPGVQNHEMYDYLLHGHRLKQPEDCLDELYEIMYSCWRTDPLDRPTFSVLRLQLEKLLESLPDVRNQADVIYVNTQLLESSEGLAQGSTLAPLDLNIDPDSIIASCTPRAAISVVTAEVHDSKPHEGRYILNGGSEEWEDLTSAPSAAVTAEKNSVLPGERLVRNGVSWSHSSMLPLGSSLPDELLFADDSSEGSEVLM

[24] = molecular target: 468 kinases including some pathogenic mutants (Homo sapiens, UniProt O15197); conditions: EPHB6 (Entrez EPHB6), 100 nM; read-out: Percent Control
[25] = molecular target: 468 kinases including some pathogenic mutants (Homo sapiens, UniProt P43403); conditions: ZAP70 (Entrez ZAP70), 1000 nM; read-out: Percent Control
Sequence of 468 kinases including some pathogenic mutants (Homo sapiens, UniProt P43403) (P43403 whole entry, change not shown): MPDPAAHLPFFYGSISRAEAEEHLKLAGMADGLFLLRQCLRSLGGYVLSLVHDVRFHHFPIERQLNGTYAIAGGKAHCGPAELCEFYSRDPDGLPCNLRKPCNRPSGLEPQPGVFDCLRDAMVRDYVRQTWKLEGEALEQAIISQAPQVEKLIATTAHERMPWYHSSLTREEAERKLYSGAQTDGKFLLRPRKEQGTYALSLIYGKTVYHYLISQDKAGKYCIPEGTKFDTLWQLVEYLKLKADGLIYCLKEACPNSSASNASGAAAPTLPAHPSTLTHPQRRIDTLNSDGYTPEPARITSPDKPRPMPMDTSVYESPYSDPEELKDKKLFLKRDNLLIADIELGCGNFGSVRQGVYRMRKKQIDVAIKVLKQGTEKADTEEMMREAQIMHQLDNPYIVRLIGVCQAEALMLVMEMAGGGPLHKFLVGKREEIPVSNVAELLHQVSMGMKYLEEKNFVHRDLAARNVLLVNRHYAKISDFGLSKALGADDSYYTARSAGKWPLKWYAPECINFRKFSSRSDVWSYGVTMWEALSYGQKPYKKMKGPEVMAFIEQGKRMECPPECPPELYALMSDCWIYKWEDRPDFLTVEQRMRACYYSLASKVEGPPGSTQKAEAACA

[26] = molecular target: 468 kinases including some pathogenic mutants (Homo sapiens, UniProt O75676); conditions: 1000 nM, read-out: Percent Control
Sequence of 468 kinases including some pathogenic mutants (Homo sapiens, UniProt O75676) (O75676 whole entry, change not shown): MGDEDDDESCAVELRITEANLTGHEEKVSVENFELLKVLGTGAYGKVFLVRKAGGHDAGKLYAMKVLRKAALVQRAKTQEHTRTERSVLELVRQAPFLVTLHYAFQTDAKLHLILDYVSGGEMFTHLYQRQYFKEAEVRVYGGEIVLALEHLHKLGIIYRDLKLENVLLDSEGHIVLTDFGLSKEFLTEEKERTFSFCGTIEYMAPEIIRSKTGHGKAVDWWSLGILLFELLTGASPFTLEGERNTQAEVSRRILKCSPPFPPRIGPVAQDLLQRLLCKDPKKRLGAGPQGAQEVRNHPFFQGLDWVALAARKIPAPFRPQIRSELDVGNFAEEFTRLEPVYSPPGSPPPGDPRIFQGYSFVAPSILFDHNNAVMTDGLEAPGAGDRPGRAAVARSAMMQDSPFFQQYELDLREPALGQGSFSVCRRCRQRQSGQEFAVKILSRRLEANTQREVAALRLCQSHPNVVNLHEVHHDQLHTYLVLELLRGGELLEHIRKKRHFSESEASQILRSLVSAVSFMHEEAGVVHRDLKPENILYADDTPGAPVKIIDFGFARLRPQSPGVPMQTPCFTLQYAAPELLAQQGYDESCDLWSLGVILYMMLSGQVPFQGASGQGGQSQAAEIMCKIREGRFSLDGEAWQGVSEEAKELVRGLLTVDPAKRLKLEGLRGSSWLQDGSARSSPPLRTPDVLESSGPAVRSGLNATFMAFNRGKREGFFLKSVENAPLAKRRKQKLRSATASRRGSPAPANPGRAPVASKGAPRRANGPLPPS

[27] = molecular target: 468 kinases including some pathogenic mutants (Homo sapiens, UniProt Q2M2I8); conditions: AAK1 (Entrez AAK1), 100 nM; read-out: Percent Control
[28] = molecular target: 468 kinases including some pathogenic mutants (Homo sapiens, UniProt Q13557); conditions: CAMK2D (Entrez CAMK2D), 100 nM; read-out: Percent Control

## CN1C(=O)[C@@H](N2CCc3c(nn(Cc4ccccc4)c3C(N)=O)C2=O)COc2cc(Cl)ccc21 [Compound 10, (S)-2-benzyl-6-(8-chloro-5-methyl-4-oxo-2,3,4,5-tetrahydrobenzo[b][1,4]oxazepin-3-yl)-7-oxo-4,5,6,7-tetrahydro-2H-pyrazolo[3,4-c]pyridine-3-carboxamide]
[1]
  remaining activity at 0.1 µM: 88%
[2]
  remaining activity at 0.1 µM: 87%
[3]
  remaining activity at 0.1 µM: 60%
[4]
  remaining activity at 1 µM: 100%
[5]
  remaining activity at 1 µM: 100%
[6]
  remaining activity at 0.1 µM: 79%
[7]
  remaining activity at 0.1 µM: 70%
[8]
  remaining activity at 0.1 µM: 84%
[9]
  remaining activity at 0.1 µM: 86%
[10]
  remaining activity at 0.1 µM: 91%
[11]
  remaining activity at 0.1 µM: 67%
[12]
  remaining activity at 0.1 µM: 78%
[13]
  remaining activity at 0.1 µM: 85%
[14]
  remaining activity at 1 µM: 100%
[15]; listed as LIJTF500025
  Percent Control: 73%
[15]; read-out: Percent Control
  remaining activity at 0.1 µM: 67%
[16]
  remaining activity at 0.1 µM: 89%
[17]
  remaining activity at 0.1 µM: 87%
[18]
  remaining activity at 0.1 µM: 94%
[19]
  remaining activity at 0.1 µM: 65%
[20]
  remaining activity at 0.1 µM: 76%
[21]
  remaining activity at 1 µM: 100%
[22]
  remaining activity at 0.1 µM: 100%
[23]
  remaining activity at 0.1 µM: 72%
[24]
  remaining activity at 0.1 µM: 91%
[25]
  remaining activity at 1 µM: 100%
[26]; RPS6KA4(Kin.Dom.1-N-terminal) (Entrez RPS6KA4)
  remaining activity at 1 µM: 100%
[26]; RPS6KA4(Kin.Dom.2-C-terminal) (Entrez RPS6KA4)
  remaining activity at 1 µM: 100%
[27]
  remaining activity at 0.1 µM: 72%
[28]
  remaining activity at 0.1 µM: 80%
